Experimental findings from ChEMBL document CHEMBL1201862, “PubChem BioAssay data set” (2004) are described below.

Each structure is given as a SMILES string.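 Tested at 5 concentrations; 48 h exposure; 96-well plates; endpoints linearly interpolated, else capped at highest concentration. Abbreviation: GI50, concentration required for 50% inhibition of growth.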 Active and inactive are the calls of the source. Cut-off read from the data, not from the text of the source: active = GI50 up to about 1.1 µM and inactive = higher.

Among the test systems are MDA-MB-231; SNB-75; SF-539; HOP-62; RXF 393; SF-268; MDA-N; BT-549; OVCAR-4; UO-31; K562; M14; U-251; NCI-H23; UACC-257; SN12C; NCI-H460; HCC 2998; SK-MEL-28; SR.
What all share (test): NCI-60 cell line screen, 48 h

For `CC(=O)N1N=C(N)CC1=O`, the GI50 in the assay on MDA-MB-231, in the assay on SNB-75, in the assay on SF-539, in the assay on HOP-62, in the assay on RXF 393 and in the assay with SF-268 was > 100 µM (inactive) throughout. Besides, the GI50 in the assay on MDA-N, with BT-549, with OVCAR-4, in the assay on UO-31, in the assay with K562 and with M14 was > 100 µM (inactive) each time. For the same compound, the GI50 in the assay on U-251, in the assay with NCI-H23, in the assay with UACC-257, with SN12C, in the assay with NCI-H460 and in the assay with HCC 2998 was > 100 µM (inactive) throughout. For the same compound, the GI50 with SK-MEL-28 and in the assay on SR was > 100 µM (inactive) each time.
`CCOC(=O)[C@H](O)[C@@H](O)C(=O)NCc1ccc(C(=O)c2ccccc2)cc1`: the GI50 with MDA-MB-231, in the assay on SNB-75, in the assay with SF-539, in the assay on HOP-62, in the assay with RXF 393 and in the assay on SF-268 was > 100 µM (inactive) each time. Moreover, the GI50 in the assay with MDA-N, in the assay on BT-549, with OVCAR-4, with UO-31, in the assay on K562 and with M14 was > 100 µM (inactive) each time. Besides, the GI50 in the assay with U-251, in the assay with NCI-H23, in the assay with UACC-257, in the assay on SN12C, with NCI-H460 and in the assay with HCC 2998 was > 100 µM (inactive) in each case. Further, the GI50 in the assay with SK-MEL-28 and in the assay with SR was > 100 µM (inactive) in each case.
For the compound `COc1ccccc1C1C2=C(COC2=O)Oc2cc3c(cc21)OCO3` (stereo not given), the GI50 in the assay with MDA-MB-231 was 3.45 µM (inactive); with SNB-75, 3.51 µM (inactive); with SF-539, 1.97 µM (inactive); in the assay with HOP-62, 3.93 µM (inactive); with RXF 393, 1.69 µM (inactive); in the assay on SF-268, 4.88 µM (inactive). The GI50 with MDA-N is 0.245 µM (active); in the assay with BT-549, 66.2 µM (inactive); in the assay on OVCAR-4, 11.7 µM (inactive); with UO-31, 3.56 µM (inactive); in the assay with K562, 0.706 µM (active); with M14 it was 1.4 µM (inactive). For the same compound, the GI50 with U-251 was 3.66 µM (inactive); in the assay on NCI-H23 it was 3.22 µM (inactive); in the assay with UACC-257, 21.1 µM (inactive); in the assay on SN12C it was 3.82 µM (inactive); in the assay on NCI-H460 it was 3.64 µM (inactive); with HCC 2998, 3.23 µM (inactive). Also, the GI50 with SK-MEL-28 was 4.73 µM (inactive); in the assay with SR, 0.792 µM (active).
Turning to `CCCCC(=O)Nc1ccc2cc(C(=O)OC)c(ON3C(=O)c4ccccc4C3=O)nc2n1`, the GI50 was 38.9 µM (inactive) with MDA-MB-231; 28.6 µM (inactive) in the assay on SNB-75; 18 µM (inactive) in the assay with SF-539; 18.6 µM (inactive) with HOP-62; 20.5 µM (inactive) with RXF 393; 29.1 µM (inactive) in the assay with SF-268. The GI50 was 22.3 µM (inactive) in the assay on MDA-N; 38.3 µM (inactive) with BT-549; 28.1 µM (inactive) in the assay on OVCAR-4; 18.2 µM (inactive) with UO-31; 33.2 µM (inactive) in the assay with K562; 17.9 µM (inactive) in the assay on M14. The GI50 with U-251 is 26.5 µM (inactive); in the assay with NCI-H23, 44.1 µM (inactive); with UACC-257 it was 23.5 µM (inactive); in the assay with SN12C, 28.9 µM (inactive); with NCI-H460, 15.3 µM (inactive); with HCC 2998 it was 22.6 µM (inactive). The GI50 is 23.2 µM (inactive) in the assay on SK-MEL-28 and 36.4 µM (inactive) in the assay on SR.
Take `O=CC(=C(I)I)c1ccccc1`: the GI50 in the assay with MDA-MB-231 was 2.87 µM (inactive); in the assay with SNB-75, 2.64 µM (inactive); in the assay with SF-539 it was 2.35 µM (inactive); with HOP-62 it was 7.24 µM (inactive); in the assay on RXF 393, 1.88 µM (inactive); in the assay on SF-268, 2.25 µM (inactive). For the same compound, the GI50 in the assay on MDA-N was 2.04 µM (inactive); in the assay on BT-549, 4.38 µM (inactive); with OVCAR-4 it was 2.03 µM (inactive); with UO-31 it was 2.69 µM (inactive); in the assay with K562, 0.264 µM (active); in the assay with M14 it was 1.75 µM (inactive). The GI50 was 3.58 µM (inactive) in the assay with U-251; 2.05 µM (inactive) with NCI-H23; 2.9 µM (inactive) in the assay with UACC-257; 2.28 µM (inactive) with SN12C; 17.1 µM (inactive) in the assay on NCI-H460; 10.5 µM (inactive) with HCC 2998. Further, the GI50 in the assay on SK-MEL-28 was 2.64 µM (inactive); in the assay with SR it was 0.197 µM (active).
With `CC(=O)OCC1OC(n2c(-c3ccccc3)c(/N=N/c3ccccc3)c(C)c(C#N)c2=S)C(OC(C)=O)C(OC(C)=O)C1OC(C)=O` (stereo not given), the GI50 in the assay with MDA-MB-231, in the assay on SNB-75, with SF-539, in the assay with HOP-62, with RXF 393 and in the assay with SF-268 was > 100 µM (inactive) throughout. The GI50 in the assay on MDA-N, with BT-549, in the assay with OVCAR-4, in the assay on UO-31, in the assay on K562 and in the assay on M14 was > 100 µM (inactive) each time. Moreover, the GI50 is > 100 µM (inactive) with U-251; > 100 µM (inactive) with NCI-H23; 12.3 µM (inactive) in the assay with UACC-257; > 100 µM (inactive) with SN12C; > 100 µM (inactive) with NCI-H460; > 100 µM (inactive) in the assay with HCC 2998. In addition, the GI50 in the assay with SK-MEL-28 and in the assay on SR was > 100 µM (inactive) in each case.
As for `CC(=O)OCC1OC(O[C@H]2C=C[C@@H](C(=O)OCc3ccccc3)n3c(=O)n(-c4ccccc4)c(=O)n32)C(OC(C)=O)C(OC(C)=O)C1OC(C)=O` (stereo not given in full), the GI50 with MDA-MB-231 is 1.89 µM (inactive); with SNB-75 it was 10.9 µM (inactive); in the assay on SF-539, 1.82 µM (inactive); with HOP-62 it was 5.01 µM (inactive); in the assay with RXF 393, 2.24 µM (inactive); in the assay on SF-268, 1.78 µM (inactive). For the same compound, the GI50 is 2.77 µM (inactive) in the assay with MDA-N; 1.8 µM (inactive) with BT-549; 2.54 µM (inactive) with OVCAR-4; 1.57 µM (inactive) with UO-31; 1.63 µM (inactive) with K562; 1.78 µM (inactive) in the assay with M14. In addition, the GI50 in the assay with U-251 was 2.14 µM (inactive); with NCI-H23, 2.96 µM (inactive); in the assay with UACC-257, 1.92 µM (inactive); in the assay with SN12C, 1.94 µM (inactive); with NCI-H460, 1.58 µM (inactive); in the assay with HCC 2998, 1.73 µM (inactive). In addition, the GI50 in the assay with SK-MEL-28 was 1.86 µM (inactive); with SR it was 1.3 µM (inactive).
In the case of `COc1cc(C2c3cc4c(cc3OC(NCCO)C2C)OCO4)cc(OC)c1OC` (stereo not given), the GI50 in the assay on MDA-MB-231 is 1.6 µM (inactive); in the assay with SNB-75, 1.12 µM (inactive); in the assay with SF-539, 0.232 µM (active); in the assay on HOP-62 it was 0.289 µM (active); in the assay with RXF 393, 0.426 µM (active); in the assay with SF-268, 2.05 µM (inactive). Moreover, the GI50 with MDA-N is 0.401 µM (active); in the assay on BT-549 it was 3.66 µM (inactive); in the assay on OVCAR-4 it was 12.7 µM (inactive); in the assay with UO-31 it was 1.52 µM (inactive); in the assay on K562, 0.195 µM (active); in the assay with M14 it was 0.27 µM (active). Further, the GI50 with U-251 was 0.406 µM (active); in the assay on NCI-H23, 1.19 µM (inactive); in the assay on UACC-257 it was 1.61 µM (inactive); in the assay with SN12C it was 0.658 µM (active); in the assay with NCI-H460, 0.409 µM (active); with HCC 2998, 0.824 µM (active). Moreover, the GI50 is 0.713 µM (active) with SK-MEL-28 and 0.248 µM (active) in the assay with SR.
Turning to `CC(NP(=O)(c1ccccc1)c1ccccc1)c1ccccc1` (stereo not given), the GI50 in the assay on MDA-MB-231, with SNB-75, in the assay with SF-539, in the assay with HOP-62, in the assay on RXF 393 and with SF-268 was > 100 µM (inactive) each time. For the same compound, the GI50 in the assay on MDA-N, in the assay with BT-549, with OVCAR-4, in the assay on UO-31, with K562 and in the assay with M14 was > 100 µM (inactive) each time. For the same compound, the GI50 in the assay with U-251, in the assay on NCI-H23, in the assay with UACC-257, in the assay on SN12C, in the assay on NCI-H460 and with HCC 2998 was > 100 µM (inactive) each time. Moreover, the GI50 with SK-MEL-28 and in the assay on SR was > 100 µM (inactive) each time.
As to `O=C(O)C1[C@@H](C(=O)O)C1(Br)CBr` (stereo not given in full), the GI50 with MDA-MB-231, in the assay on SNB-75, in the assay on SF-539, in the assay with HOP-62, in the assay on RXF 393 and in the assay on SF-268 was > 100 µM (inactive) each time. Also, the GI50 in the assay with MDA-N, with BT-549, in the assay with OVCAR-4, in the assay with UO-31, in the assay on K562 and with M14 was > 100 µM (inactive) in each case. For the same compound, the GI50 in the assay with U-251, with NCI-H23, in the assay with UACC-257, with SN12C, in the assay with NCI-H460 and in the assay with HCC 2998 was > 100 µM (inactive) each time. Further, the GI50 in the assay with SK-MEL-28 and in the assay with SR was > 100 µM (inactive) each time.
